Reference: PubChem BioAssay (NCI)
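Five compound concentrations were applied to cells in 96-well plates for 48 hours; endpoints were derived by simple linear interpolation of the resulting dose-response curve. TGI is the concentration that stops growth completely.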

The compounds below were run on NCI/ADR-RES ovarian (assay: DTP human tumour cell line panel, 48 h).

Compound	TGI [µM]
CC(=O)c1cccc2c1CC1(C2)Cc2ccc3c(c2C1=O)CCC3 (stereo not given)	57.5
Nc1nc(Cl)cc(NCC2(CO)CC(OCc3ccccc3)C2)n1 (stereo not given)	> 100

Each compound was assayed on HCT-116 colon (assay: DTP human tumour cell line panel, 48 h).

Compound	TGI [µM]
Cc1cccc(N2C(=O)C(Cl)=C(Cl)C2=O)c1	> 100
CCC(C)(O)c1cn(-c2cccc(S(=O)(=O)O)c2)nn1 (stereo not given)	> 100
COc1ccc(OC)c(/C=C/NC=O)c1	> 100
CC(=O)c1cccc2c1CC1(C2)Cc2ccc3c(c2C1=O)CCC3 (stereo not given)	> 100
COc1cc(Cc2cc(OC)c(OC)c(OC)c2)ccc1O	> 100
Nc1nc(Cl)cc(NCC2(CO)CC(OCc3ccccc3)C2)n1 (stereo not given)	> 100
CC1=CC(=O)NCCN1C	> 100

Each compound was assayed on LOX IMVI melanoma (assay: DTP human tumour cell line panel, 48 h).

Compound	TGI [µM]
Cc1cccc(N2C(=O)C(Cl)=C(Cl)C2=O)c1	> 100
CCC(C)(O)c1cn(-c2cccc(S(=O)(=O)O)c2)nn1 (stereo not given)	> 100
COc1ccc(OC)c(/C=C/NC=O)c1	> 100
CC(=O)c1cccc2c1CC1(C2)Cc2ccc3c(c2C1=O)CCC3 (stereo not given)	> 100
COc1cc(Cc2cc(OC)c(OC)c(OC)c2)ccc1O	> 100
Nc1nc(Cl)cc(NCC2(CO)CC(OCc3ccccc3)C2)n1 (stereo not given)	> 100
CC1=CC(=O)NCCN1C	> 100

The compounds below were run on SN12C renal (assay: DTP human tumour cell line panel, 48 h).

Compound	TGI [µM]
Cc1cccc(N2C(=O)C(Cl)=C(Cl)C2=O)c1	> 100
CCC(C)(O)c1cn(-c2cccc(S(=O)(=O)O)c2)nn1 (stereo not given)	> 100
COc1ccc(OC)c(/C=C/NC=O)c1	> 100
CC(=O)c1cccc2c1CC1(C2)Cc2ccc3c(c2C1=O)CCC3 (stereo not given)	> 100
COc1cc(Cc2cc(OC)c(OC)c(OC)c2)ccc1O	> 100
Nc1nc(Cl)cc(NCC2(CO)CC(OCc3ccccc3)C2)n1 (stereo not given)	> 100
CC1=CC(=O)NCCN1C	> 100

These compounds were tested on MCF7 breast (assay: DTP human tumour cell line panel, 48 h).

Compound	TGI [µM]
CC(=O)c1cccc2c1CC1(C2)Cc2ccc3c(c2C1=O)CCC3 (stereo not given)	76.4
Nc1nc(Cl)cc(NCC2(CO)CC(OCc3ccccc3)C2)n1 (stereo not given)	> 100

These compounds were tested on DMS 114 small cell lung (assay: DTP human tumour cell line panel, 48 h).

Compound	TGI [µM]
Cc1cccc(N2C(=O)C(Cl)=C(Cl)C2=O)c1	> 100
CCC(C)(O)c1cn(-c2cccc(S(=O)(=O)O)c2)nn1 (stereo not given)	> 100
COc1ccc(OC)c(/C=C/NC=O)c1	> 100
COc1cc(Cc2cc(OC)c(OC)c(OC)c2)ccc1O	> 100
CC1=CC(=O)NCCN1C	> 100

Each compound was assayed on MDA-MB-231 breast (assay: DTP human tumour cell line panel, 48 h).

Compound	TGI [µM]
CC(=O)c1cccc2c1CC1(C2)Cc2ccc3c(c2C1=O)CCC3 (stereo not given)	> 100
Nc1nc(Cl)cc(NCC2(CO)CC(OCc3ccccc3)C2)n1 (stereo not given)	> 100

Each compound was assayed on UACC-257 melanoma (assay: DTP human tumour cell line panel, 48 h).

Compound	TGI [µM]
Cc1cccc(N2C(=O)C(Cl)=C(Cl)C2=O)c1	> 100
CCC(C)(O)c1cn(-c2cccc(S(=O)(=O)O)c2)nn1 (stereo not given)	> 100
COc1ccc(OC)c(/C=C/NC=O)c1	> 100
CC(=O)c1cccc2c1CC1(C2)Cc2ccc3c(c2C1=O)CCC3 (stereo not given)	43.9
COc1cc(Cc2cc(OC)c(OC)c(OC)c2)ccc1O	> 100
Nc1nc(Cl)cc(NCC2(CO)CC(OCc3ccccc3)C2)n1 (stereo not given)	> 100
CC1=CC(=O)NCCN1C	> 100

Each compound was assayed on K-562 leukemia (assay: DTP human tumour cell line panel, 48 h).

Compound	TGI [µM]
Cc1cccc(N2C(=O)C(Cl)=C(Cl)C2=O)c1	> 83.2
CCC(C)(O)c1cn(-c2cccc(S(=O)(=O)O)c2)nn1 (stereo not given)	> 100
COc1ccc(OC)c(/C=C/NC=O)c1	> 100
CC(=O)c1cccc2c1CC1(C2)Cc2ccc3c(c2C1=O)CCC3 (stereo not given)	> 100
COc1cc(Cc2cc(OC)c(OC)c(OC)c2)ccc1O	> 100
Nc1nc(Cl)cc(NCC2(CO)CC(OCc3ccccc3)C2)n1 (stereo not given)	> 100
CC1=CC(=O)NCCN1C	> 100

What follows are compounds tested on OVCAR-5 ovarian (assay: DTP human tumour cell line panel, 48 h).

Compound	TGI [µM]
Cc1cccc(N2C(=O)C(Cl)=C(Cl)C2=O)c1	> 100
CCC(C)(O)c1cn(-c2cccc(S(=O)(=O)O)c2)nn1 (stereo not given)	> 100
COc1ccc(OC)c(/C=C/NC=O)c1	> 100
CC(=O)c1cccc2c1CC1(C2)Cc2ccc3c(c2C1=O)CCC3 (stereo not given)	> 100
